Laboratory results published in the NIST ThermoML archive (doi:10.1016/j.fluid.2018.08.012).

Assay: mn = molality of the nth substance listed, in mol/kg
Conditions: Fluid (supercritical or subcritical phases), Vibrating tube method, m1 = 0.2867

O=O [oxygen] + O=C=O
Conditions	mass density [kg/m3]
324.14 K, 2522.5 kPa	45.49
324.14 K, 2531.8 kPa	45.7
324.14 K, 4992.7 kPa	102.94
324.14 K, 4998.9 kPa	103.15
324.14 K, 7566.1 kPa	190.74
324.14 K, 7573.3 kPa	191.05
324.14 K, 10066 kPa	353.17
324.14 K, 10098 kPa	356.14
324.14 K, 12475 kPa	568.33
324.14 K, 12572 kPa	574.14
324.14 K, 15029 kPa	672.53
324.14 K, 15098 kPa	674.53
324.14 K, 17553 kPa	728.46
324.14 K, 17623 kPa	729.72
324.14 K, 20076 kPa	766.9
324.14 K, 20148 kPa	767.83
324.14 K, 22597 kPa	796.51
324.14 K, 22667 kPa	797.24
324.14 K, 25116 kPa	820.6
324.14 K, 25186 kPa	821.19
324.14 K, 27631 kPa	841.02
324.14 K, 27694 kPa	841.49
324.14 K, 30138 kPa	858.75
324.14 K, 30191 kPa	859.1
324.14 K, 32647 kPa	874.55
324.14 K, 32683 kPa	874.75
324.14 K, 35167 kPa	888.83
324.14 K, 35203 kPa	889.04
349.64 K, 2302.3 kPa	37.34
349.64 K, 2512.6 kPa	41.14
349.64 K, 4999.4 kPa	89.28
349.64 K, 5056.2 kPa	90.61
349.64 K, 7565.3 kPa	151.08
349.64 K, 7587.3 kPa	151.35
349.64 K, 10124 kPa	230.35
349.64 K, 10132 kPa	230.46
349.64 K, 12648 kPa	331.76
349.64 K, 12654 kPa	331.87
349.64 K, 15179 kPa	445.16
349.64 K, 15184 kPa	445.19
349.64 K, 17705 kPa	539.74
349.64 K, 17709 kPa	539.82
349.64 K, 20232 kPa	608.22
349.64 K, 20234 kPa	608.3
349.64 K, 22753 kPa	658.24
349.64 K, 22754 kPa	658.22
349.64 K, 25272 kPa	696.75
349.64 K, 25273 kPa	696.87
349.64 K, 27781 kPa	727.9
349.64 K, 27787 kPa	728.07
349.64 K, 30280 kPa	753.96
349.64 K, 30284 kPa	754.07
349.64 K, 32783 kPa	776.37
349.64 K, 32788 kPa	776.48
349.64 K, 35276 kPa	795.97
349.64 K, 35282 kPa	796.06
375.03 K, 2543.1 kPa	38.14
375.03 K, 2546.2 kPa	38.31
375.03 K, 5059.3 kPa	80.85
375.03 K, 5060.3 kPa	80.97
375.03 K, 7540.3 kPa	129.17
375.03 K, 7545.1 kPa	129.65
375.03 K, 10091 kPa	186.78
375.03 K, 10093 kPa	186.66
375.03 K, 12606 kPa	251.89
375.03 K, 12615 kPa	252.03
375.03 K, 15138 kPa	324.48
375.03 K, 15156 kPa	324.83
375.03 K, 17663 kPa	398.41
375.03 K, 17683 kPa	398.81
375.03 K, 20185 kPa	466.78
375.03 K, 20209 kPa	467.22
375.03 K, 22704 kPa	525.43
375.03 K, 22730 kPa	525.92
375.03 K, 25225 kPa	574.34
375.03 K, 25249 kPa	574.81
375.03 K, 27742 kPa	614.94
375.03 K, 27764 kPa	615.3
375.03 K, 30257 kPa	648.94
375.03 K, 30265 kPa	649.12
375.03 K, 32764 kPa	678.12
375.03 K, 32769 kPa	678.04
375.03 K, 35257 kPa	703.36
375.03 K, 35260 kPa	703.21
400.19 K, 2573.8 kPa	35.12
400.19 K, 2574.8 kPa	35.31
400.19 K, 5072.3 kPa	73.3
400.19 K, 5100.4 kPa	73.64
400.19 K, 7612.6 kPa	115.55
400.19 K, 7616.5 kPa	115.71
400.19 K, 10127 kPa	162.27
400.19 K, 10138 kPa	162.47
400.19 K, 12592 kPa	211.79
400.19 K, 12600 kPa	212.51
400.19 K, 15121 kPa	265.98
400.19 K, 15134 kPa	266.82
400.19 K, 17648 kPa	321.85
400.19 K, 17661 kPa	322.66
400.19 K, 20173 kPa	377.08
400.19 K, 20186 kPa	377.95
400.19 K, 22693 kPa	429.17
400.19 K, 22707 kPa	430.08
400.19 K, 25212 kPa	476.61
400.19 K, 25228 kPa	477.53
400.19 K, 27728 kPa	518.93
400.19 K, 27743 kPa	519.82
400.19 K, 30241 kPa	556.24
400.19 K, 30253 kPa	557.1
400.19 K, 32739 kPa	588.97
400.19 K, 32757 kPa	589.89
400.19 K, 35235 kPa	617.97
400.19 K, 35247 kPa	618.78
